What follows are molecules tested on astrocytes (assay: Other amino acids promote uptake of plasmid vectors by astrocytes). Details: amino acid solution as vehicle.
Format: in vivo
Method: Other amino acids, including serine, alanine, histidine, γ-aminobutyric acid, proline, lysine, and threonine, are tested. […] From the analysis of the transfection efficiency of various amino acids, it was seen that, except for alanine, the efficiency of L-type amino acids is much higher than that of D-type amino acids (please see FIG. 11).
Histidine, lysine, and arginine, which are also positively charged, are significant differences in delivery efficiency, and gene delivery efficiency of threonine, serine lysine, etc. also has vast differences.
In the case of `C[C@@H](N)C(=O)O` [D-Alanine], the “uptake of plasmid vectors by astrocytes” value is reported as “promote astrocyte uptake of plasmid vector(s)”. With `N[C@@H](Cc1c[nH]cn1)C(=O)O` [L-Histidine] the “uptake of plasmid vectors by astrocytes” value was “promote astrocyte uptake of plasmid vector(s)”. In the case of `N[C@@H](CO)C(=O)O` [L-Serine], the “uptake of plasmid vectors by astrocytes” value is reported as “promote astrocyte uptake of plasmid vector(s)”. `C[C@@H](O)[C@H](N)C(=O)O` [L-Threonine] was tested, and the “uptake of plasmid vectors by astrocytes” value was “promote astrocyte uptake of plasmid vector(s)”. For `C[C@H](N)C(=O)O` [alanine], the “uptake of plasmid vectors by astrocytes” value was “can efficiently promote astrocytes to take up plasmid vectors”. `N[C@@H](Cc1c[nH]cn1)C(=O)O` [histidine] was tested, and the “uptake of plasmid vectors by astrocytes” value was “can efficiently promote astrocytes to take up plasmid vectors”. With `NCCCC[C@H](N)C(=O)O` [lysine] the “uptake of plasmid vectors by astrocytes” value was “can efficiently promote astrocytes to take up plasmid vectors”. With `O=C(O)[C@@H]1CCCN1` [proline] the “uptake of plasmid vectors by astrocytes” value was “can efficiently promote astrocytes to take up plasmid vectors”. For `N[C@@H](CO)C(=O)O` [serine], the “uptake of plasmid vectors by astrocytes” value was “can efficiently promote astrocytes to take up plasmid vectors”. With `C[C@@H](O)[C@H](N)C(=O)O` [threonine] the “uptake of plasmid vectors by astrocytes” value was “can efficiently promote astrocytes to take up plasmid vectors”. With `NCCCC(=O)O` [γ-aminobutyric acid] the “uptake of plasmid vectors by astrocytes” value was “can efficiently promote astrocytes to take up plasmid vectors”.
